Earlier results as cited in publication PMC2409929 (British Journal of Cancer, 2004).
Marks after values point to notes of the source that are not given here.

How the values were obtained:
[1] = N=6, mean±s.d., ref 16 (Herben et al, 1999), cited from earlier work
topo-isomerase I = tested on: topo-isomerase I; design: method as in Slatter et al, 1997; conditions: in vitro models; ref Slatter et al, 1997; cited from earlier work
[2] = after irinotecan 140 mg m^−2: 10 mg m^−2 as 14-day prolonged infusions

In the case of CCc1c2c(nc3ccc(O)cc13)-c1cc3c(c(=O)n1C2)COC(=O)[C@]3(O)CC [SN-38, 7-ethyl-10-hydroxycamptothecin], the “Metabolic ratio (SN-38 AUC over irinotecan AUC)” value ([1]; 140 mg m^−2: 10 mg m^−2 irinotecan as 14-day prolonged infusions) is listed as 0.12±0.02 ^b, the “SN-38 AUC” value [1, 2] is listed as 1.4 ± 0.3 µM·h and the “SN-38 AUCc (AUC per cycle)” value [1, 2] is listed as 4.2 ± 0.9 µM·h. For the same compound, the “Potency as topo-isomerase I inhibitor relative to parent compound (irinotecan)” value (topo-isomerase I) was 100–1000 times.
